Biological target: T1, human Keap1 Kelch domain (Homo sapiens, UniProt Q14145)
T1 construct: human Keap1 Kelch domain (residue 321-609, UniProt Q14145); made in house; host or cells: Escherichia coli BL21 (DE3) pLysS, pRSET A vector
Assay: Fluorescence polarization (FP) competition assay, Cy5-Nrf2 peptide probe
Assay type: binding
Conditions: heterologous competition FP; Keap1 Kelch 14 nM, Cy5-Nrf2 probe 3 nM, 4% DMSO; mean ± SEM
Experimental: The binding affinities between the fluorescent peptide probe Cy5-Nrf2 (SEQ: Cy5-[…]-NH2) and the human Keap1 Kelch domain were determined as Kd values by saturation binding experiments, where increasing concentrations of Keap1 (0-300 nM) were added to a fixed concentration of peptide probe (3 nM). The assay was performed in a 1× HBSTET buffer (10 mM HEPES, 150 mM NaCl, 0.005% Tween20, 3 mM ethylenediaminetetraacetic acid (EDTA), 1 mM TCEP, pH=7.4) using black flat-bottom 384-well plates (Corning Life Sciences, NY), a volume of 30 μL/well, and a final DMSO concentration of 4% or 8%. The assay plate was spun down to ascertain proper mixing and removal of potential air bubbles and incubated for 10-15 min at room temperature before measuring the FP levels on a Safire2 plate reader (Tecan, Mannedorf, Switzerland). The g-factor was adjusted at each experiment so that a series of three blank wells containing probe but no Keap1 Kelch defined the baseline FP value. The Cy5-Nrf2 probe was measured at excitation/emission values of 635:670 nm. The FP values were fitted to the one-site specific binding equation: Y=Bmax×X/(Kd+X), with Bmax being the maximal FP value, X the Keap1 Kelch concentration, and Y the variable FP values. The Kd values were derived from the resulting binding saturation curve as being equal to the Keap1 Kelch concentration, where the curve is half-saturated.
The affinities between nonfluorescent small molecule Keap1 inhibitors and Keap1 Kelch were determined as Ki values in a heterologous competition FP binding assay. This was done by adding increasing concentration of test compound (2-fold serial dilutions, 12 concentrations tested per inhibition curve as duplicates) to a fixed concentration of Keap1 Kelch (14 nM) and the Cy5-Nrf2 peptide probe (3 nM) in the same HBSTET buffer and conditions as described above (final DMSO concentrations were 4%). FP values were fitted to the equation Y=Bottom+(Top−Bottom)/[1+(10^HillSlope×(log IC50−X))], where X is the logarithmic value of compound concentration. Hereby, the IC50 value was obtained, which together with the […] value and probe and Keap1 Kelch concentrations was used to calculate the theoretical competitive inhibition constant, the Ki value. 43 Ki values are shown as mean±SEM (standard error of mean) if based on two or more individual measurements.

T1 sequence (Q14145 321-609): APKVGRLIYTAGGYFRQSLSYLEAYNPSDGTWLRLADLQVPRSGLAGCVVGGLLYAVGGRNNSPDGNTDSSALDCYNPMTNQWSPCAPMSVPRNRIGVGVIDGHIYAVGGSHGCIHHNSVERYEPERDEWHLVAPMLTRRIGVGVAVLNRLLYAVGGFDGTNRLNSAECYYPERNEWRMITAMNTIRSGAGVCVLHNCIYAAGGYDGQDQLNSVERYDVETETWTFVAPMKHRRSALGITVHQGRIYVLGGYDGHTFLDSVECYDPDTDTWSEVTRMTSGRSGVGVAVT

Compound	Ki
O=C(O)CC(c1ccc(O)cc1)c1ccc2ccc(OCC(=O)NC3CCCCCC3)cc2c1 (stereo not shown) [2b, 3-(7-(2-(Cycloheptylamino)-2-oxoethoxy)naphthalen-2-yl)-3-(4-hydroxyphenyl)propanoic acid]	0.181 ± 0.02 µM
O=C(O)CC(c1ccc2c(c1)OC(F)(F)O2)c1ccc2ccc(OCC(=O)NC3CCCCCC3)cc2c1 (stereo not shown) [2r, 3-(7-(2-(cycloheptylamino)-2-oxoethoxy)naphthalen-2-yl)-3-(2,2-difluorobenzo[d][1,3]dioxol-5-yl)propanoic acid]	0.034 ± 0.005 µM
O=C(O)CC(c1ccc2c(c1)OCO2)c1ccc2ccc(OCC(=O)NC3CCCCC3)cc2c1 (stereo not shown) [3f, 3-(benzo[d][1,3]dioxol-5-yl)-3-(7-(2-(cyclohexylamino)-2-oxoethoxy)naphthalen-2-yl)propanoic acid]	0.059 ± 0.006 µM
O=C(O)CC(c1ccc2c(c1)OC(F)(F)O2)c1ccc2ccc(OCC(=O)NC3CCCCC3)cc2c1 (stereo not shown) [3k, 3-(7-(2-(cyclohexylamino)-2-oxoethoxy)naphthalen-2-yl)-3-(2,2-difluorobenzo[d][1,3]dioxol-5-yl)propanoic acid]	0.052 ± 0.003 µM
Cc1cc2c(cc1C(CC(=O)O)c1ccc3ccc(OCC(=O)N[C@H]4C[C@@H]5CC[C@H]4C5)cc3c1)OCO2 (stereo partly drawn) [5c, 3-(7-(2-(((1S,2S,4R)-bicyclo[2.2.1]heptan-2-yl)amino)-2-oxoethoxy)naphthalen-2-yl)-3-(6-methylbenzo[d][1,3]dioxol-5-yl)propanoic acid]	0.007 µM
O=C(O)CCc1ccc2ccc(OCC(=O)NC3CCCCCC3)cc2c1 [1d, 3-(7-(2-(Cycloheptylamino)-2-oxoethoxy)naphthalen-2-yl)propanoic acid]	6 ± 0.3 µM
O=C(O)CC(c1ccc2c(c1)OCCO2)c1ccc2ccc(OCC(=O)NC3C=CCCC3)cc2c1 (stereo not shown) [4d, 3-(7-(2-(cyclohex-2-en-1-ylamino)-2-oxoethoxy)naphthalen-2-yl)-3-(2,3-dihydrobenzo[b][1,4]dioxin-6-yl)propanoic acid]	0.02 ± 0.002 µM
O=C(O)CC(c1ccc2c(c1)OCO2)c1ccc2ccc(OCC(=O)NC3CCCCCC3)cc2c1 (stereo not shown) [2m, 3-(benzo[d][1,3]dioxol-5-yl)-3-(7-(2-(cycloheptylamino)-2-oxoethoxy)naphthalen-2-yl)propanoic acid]	0.023 ± 0.002 µM
O=C(O)CCc1ccc2ccc(OCC(=O)Nc3ccccc3)cc2c1 [1h, 3-(7-(2-oxo-2-(phenylamino)ethoxy)naphthalen-2-yl)propanoic acid]	7.8 ± 0.1 µM
O=C(O)CC(c1ccc2c(c1)OCO2)c1ccc2ccc(OCC(=O)NC34CC5CC(CC(C5)C3)C4)cc2c1 [6e, 3-(7-(2-(((1S,3s)-adamantan-1-yl)amino)-2-oxoethoxy)naphthalen-2-yl)-3-(benzo[d][1,3]dioxol-5-yl)propanoic acid]	0.516 ± 0.115 µM
Cc1c(Cl)cccc1C(CC(=O)O)c1ccc2ccc(OCC(=O)NC3CCCCCC3)cc2c1 (stereo not shown) [2l, 3-(3-chloro-2-methylphenyl)-3-(7-(2-(cycloheptylamino)-2-oxoethoxy)naphthalen-2-yl)propanoic acid]	0.06 ± 0.008 µM
Cc1cc2c(cc1C(CC(=O)O)c1ccc3ccc(OCC(=O)NC4CCCCCC4)cc3c1)OCO2 (stereo not shown) [2n, 3-(7-(2-(cycloheptylamino)-2-oxoethoxy)naphthalen-2-yl)-3-(6-methylbenzo[d][1,3]dioxol-5-yl)propanoic acid]	0.008 ± 0.002 µM
O=C(O)CC(c1ccc2c(c1)OCO2)c1ccc2ccc(OCC(=O)NC3CC=CCC3)cc2c1 (stereo not shown) [6a, 3-(Benzo[d][1,3]dioxol-5-yl)-3-(7-(2-(cyclohex-3-en-1-ylamino)-2-oxoethoxy)naphthalen-2-yl)propanoic acid]	0.076 ± 0.009 µM
CC1(C)CCC(NC(=O)COc2ccc3ccc(C(CC(=O)O)c4ccc5c(c4)OCO5)cc3c2)CC1 (stereo not shown) [6g, 3-(benzo[d][1,3]dioxol-5-yl)-3-(7-(2-((4,4-dimethylcyclohexyl)amino)-2-oxoethoxy)naphthalen-2-yl)propanoic acid]	0.056 ± 0.007 µM
O=C(O)CC(c1ccc2ccc(OCC(=O)NC3CCCCCC3)cc2c1)c1ccc2occc2c1 (stereo not shown) [2t, 3-(Benzofuran-5-yl)-3-(7-(2-(cycloheptylamino)-2-oxoethoxy)naphthalen-2-yl)propanoic acid]	0.038 ± 0.002 µM
Cc1ccc(Cl)cc1C(CC(=O)O)c1ccc2ccc(OCC(=O)NC3C=CCCC3)cc2c1 (stereo not shown) [4h, 3-(5-Chloro-2-methylphenyl)-3-(7-(2-(cyclohex-2-en-1-ylamino)-2-oxoethoxy)naphthalen-2-yl)propanoic acid]	0.048 ± 0.005 µM

Compound	Ki
CCn1nnc2c(C)c(C(CC(=O)O)c3ccc4ccc(OCC(=O)NC5CCCCCC5)cc4c3)ccc21 (stereo not shown) [2p, 3-(7-(2-(cycloheptylamino)-2-oxoethoxy)naphthalen-2-yl)-3-(1-ethyl-4-methyl-1H-benzo[d][1,2,3]triazol-5-yl)propanoic acid]	0.0059 ± 0.0007 µM
COc1ccc(C(CC(=O)O)c2ccc3ccc(OCC(=O)NC4CCCCCC4)cc3c2)cc1C (stereo not shown) [2j, 3-(7-(2-(Cycloheptylamino)-2-oxoethoxy)naphthalen-2-yl)-3-(4-methoxy-3-methylphenyl)propanoic acid]	0.61 ± 0.06 µM
O=C(O)CC(c1ccccc1)c1ccc2ccc(OCC(=O)NC3CCCCCC3)cc2c1 (stereo not shown) [2a, 3-(7-(2-(Cycloheptylamino)-2-oxoethoxy)naphthalen-2-yl)-3-phenylpropanoic acid]	1.1 ± 0.1 µM
Cc1cc(C)c(NC(=O)COc2ccc3ccc(CCC(=O)O)cc3c2)c(C)c1 [1f, 3-(7-(2-(Mesitylamino)-2-oxoethoxy)naphthalen-2-yl)propanoic acid]	22 ± 0.8 µM
Cc1cc2c(cc1C(CC(=O)O)c1ccc3ccc(OCC(=O)NC4C=CCCC4)cc3c1)CCO2 (stereo not shown) [4n, 3-(7-(2-(cyclohex-2-en-1-ylamino)-2-oxoethoxy)naphthalen-2-yl)-3-(6-methyl-2,3-dihydrobenzofuran-5-yl)propanoic acid]	0.018 ± 0.002 µM
O=C(O)CC(c1ccc2c(c1)OCO2)c1ccc2ccc(OCC(=O)NC3CCCC3)cc2c1 (stereo not shown) [6d, 3-(benzo[d][1,3]dioxol-5-yl)-3-(7-(2-(cyclopentylamino)-2-oxoethoxy)naphthalen-2-yl)propanoic acid]	0.062 ± 0.005 µM
Cc1cc2c(cc1C(CC(=O)O)c1ccc3ccc(OCC(=O)NC4CCCCCC4)cc3c1)OC(F)(F)O2 (stereo not shown) [2w, 3-(7-(2-(cycloheptylamino)-2-oxoethoxy)naphthalen-2-yl)-3-(2,2-difluoro-6-methylbenzo[d][1,3]dioxol-5-yl)propanoic acid]	0.014 ± 0.002 µM
COc1cc(C)c(C(CC(=O)O)c2ccc3ccc(OCC(=O)NC4CCCCC4)cc3c2)c(C)c1 (stereo not shown) [3c, 3-(7-(2-(cyclohexylamino)-2-oxoethoxy)naphthalen-2-yl)-3-(4-methoxy-2,6-dimethylphenyl)propanoic acid]	0.168 ± 0.003 µM
O=C(O)CCc1ccc2ccc(OCC(=O)NN3CCOCC3)cc2c1 [1c, 3-(7-(2-Morpholinoamino-2-oxoethoxy)naphthalen-2-yl)propanoic acid]	268 ± 29 µM
CC(C(=O)O)C(c1ccc2c(c1)OCO2)c1ccc2ccc(OCC(=O)NC3CCCCCC3)cc2c1 (stereo not shown) [7c, 3-(benzo[d][1,3]dioxol-5-yl)-3-(7-(2-(cycloheptylamino)-2-oxoethoxy)naphthalen-2-yl)-2-methylpropanoic acid]	0.015 ± 0.001 µM
CC(C)Oc1ccc(C(CC(=O)O)c2ccc3ccc(OCC(=O)NC4CCCCCC4)cc3c2)cc1 (stereo not shown) [2f, 3-(7-(2-(Cycloheptylamino)-2-oxoethoxy)naphthalen-2-yl)-3-(4-isopropoxyphenyl)propanoic acid]	0.101 ± 0.005 µM
O=C(O)CC(c1cccc(O)c1)c1ccc2ccc(OCC(=O)NC3CCCCCC3)cc2c1 (stereo not shown) [2g, 3-(7-(2-(Cycloheptylamino)-2-oxoethoxy)naphthalen-2-yl)-3-(3-hydroxyphenyl)propanoic acid]	0.203 ± 0.03 µM
O=C(O)CC(c1ccc2c(c1)OCO2)c1ccc2ccc(OCC(=O)N[C@H]3CC[C@H](C(F)(F)F)CC3)cc2c1 (stereo partly drawn) [6i, 3-(benzo[d][1,3]dioxol-5-yl)-3-(7-(2-oxo-2-((trans-4-(trifluoromethyl)cyclohexyl)amino)ethoxy)naphthalen-2-yl)propanoic acid]	0.397 ± 0.041 µM
O=C(O)CC(c1ccc2c(c1)OCO2)c1ccc2ccc(OCC(=O)Nc3ccccc3)cc2c1 (stereo not shown) [6l, 3-(benzo[d][1,3]dioxol-5-yl)-3-(7-(2-oxo-2-(phenylamino)ethoxy)naphthalen-2-yl)propanoic acid]	1.88 µM
Cc1cc2c(cc1C(CC(=O)O)c1ccc3ccc(OCC(=O)NC4C=CCCC4)cc3c1)OC(F)(F)O2 (stereo not shown) [4l, 3-(7-(2-(cyclohex-2-en-1-ylamino)-2-oxoethoxy)naphthalen-2-yl)-3-(2,2-difluoro-6-methylbenzo[d][1,3]dioxol-5-yl)propanoic acid]	0.016 ± 0.005 µM

From patent publication US20260193170A1 (University of Copenhagen, priority 2022, published 2026)
